Reference: patent publication US20240092835A1, “NOVEL PEPTIDES CAPABLE OF ALTERING NK CELL ACTIVITY” (Massachusetts Institute of Technology, priority 2022, published 2024)
“Also recorded” adds a separate entry of the source. Where no end group is shown, it is not given here.

What was measured:
NKG2A+/NKG2C− NK cells = experiment: NK cell activation markers in NKG2A+/NKG2C- NK cells incubated with peptide and K562 expressing HLA-E (inhibition); type: cell-based, human; conditions: for effect on NKG2A+/NKG2C− NK cell inhibition (in words): K562 expressing HLA-E, CD107a, IFNG, TNF, CCL3; for percentage of CCL3+ NK cells / percentage of CD107a+ NK cells / percentage of IFNG+ NK cells / percentage of TNF+ NK cells: NKG2A+/NKG2C- NK cells, K562/HLA-E
How it was run: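 Percent-positive cells for NK activation surface markers were measured after NK cells met peptide-treated K562 cells expressing HLA-E. A decrease in that fraction was scored as inhibition and an increase as activation; NKG2A−/NKG2C− cells served as controls.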

NKG2A−/NKG2C+ NK cells = experiment: NKG2A-/NKG2C+ NK cell activation with peptide and RMA-S cells expressing HLA-E; type: cell-based; conditions: RMA-S cells expressing HLA-E, NKG2A−/NKG2C+ NK cells
Method: An antigen processing-defective lymphoma cell line (RMA-S), with a low-level expression of HLA-E, were incubated with the novel peptides to determine the inhibitory strength on NKG2A−/NKG2C+NK cells relative to positive control sequences with differential effects ([…] (SEQ ID NO: 19)/VMAPRTLFL (SEQ ID NO: 18)). The effects of the peptides on NK cell inhibition were determined by measuring four markers of NK cell activation (CD107a, IFNG, TNF, CCL3) in NKG2A−/NKG2C+NK cells (FIGS. 2A-2D). Activation was indicated by an increase in percent cells positive for cell surface markers.

QMPSRSLLF [human1, QMPSRSLLF]
effect on NKG2A+/NKG2C− NK cell inhibition (in words) (NKG2A+/NKG2C− NK cells; listed as SEQ ID NO. 7): mild inhibitory effects
effect on NKG2A+/NKG2C− NK cell inhibition (in words) (NKG2A+/NKG2C− NK cells; listed as h1): mild inhibitory effects; also recorded: strong inhibitory
percentage of CCL3+ NK cells (NKG2A+/NKG2C− NK cells; Trial 1): 31.8%
percentage of CD107a+ NK cells (NKG2A+/NKG2C− NK cells; Trial 1): 15.3%
percentage of IFNG+ NK cells (NKG2A+/NKG2C− NK cells; Trial 1): 4.26%
percentage of TNF+ NK cells (NKG2A+/NKG2C− NK cells; Trial 1): 1.66%
percentage of CCL3+ NK cells (NKG2A+/NKG2C− NK cells; Trial 2): 47%
percentage of CD107a+ NK cells (NKG2A+/NKG2C− NK cells; Trial 2): 25.7%
percentage of IFNG+ NK cells (NKG2A+/NKG2C− NK cells; Trial 2): 9.68%
percentage of TNF+ NK cells (NKG2A+/NKG2C− NK cells; Trial 2): 3.94%
percentage of CCL3+ NK cells (NKG2A+/NKG2C− NK cells; Trial 3): 28.8%
percentage of CD107a+ NK cells (NKG2A+/NKG2C− NK cells; Trial 3): 28.5%
percentage of IFNG+ NK cells (NKG2A+/NKG2C− NK cells; Trial 3): 15.5%
percentage of TNF+ NK cells (NKG2A+/NKG2C− NK cells; Trial 3): 9.23%
percentage of CCL3+ NK cells (NKG2A+/NKG2C− NK cells; Trial 4): 14.2%
percentage of CD107a+ NK cells (NKG2A+/NKG2C− NK cells; Trial 4): 14.6%
percentage of IFNG+ NK cells (NKG2A+/NKG2C− NK cells; Trial 4): 3.06%
percentage of TNF+ NK cells (NKG2A+/NKG2C− NK cells; Trial 4): 2.61%
percentage of CCL3+ NK cells (NKG2A+/NKG2C− NK cells; Trial 5): 25.5%
percentage of CD107a+ NK cells (NKG2A+/NKG2C− NK cells; Trial 5): 9.4%
percentage of IFNG+ NK cells (NKG2A+/NKG2C− NK cells; Trial 5): 2.48%
percentage of TNF+ NK cells (NKG2A+/NKG2C− NK cells; Trial 5): 1.56%
percentage of CCL3+ NK cells (NKG2A+/NKG2C− NK cells; Trial 6): 16.6%
percentage of CD107a+ NK cells (NKG2A+/NKG2C− NK cells; Trial 6): 13.3%
percentage of IFNG+ NK cells (NKG2A+/NKG2C− NK cells; Trial 6): 2.26%
percentage of TNF+ NK cells (NKG2A+/NKG2C− NK cells; Trial 6): 1.77%

TGPWRSLWI [human3, TGPWRSLWI]
increase in CCL3+ NK cells (in words) (NKG2A−/NKG2C+ NK cells): slight increases
increase in CD107a+ NK cells (in words) (NKG2A−/NKG2C+ NK cells): slight increases
increase in IFNG+ NK cells (in words) (NKG2A−/NKG2C+ NK cells): no increase
increase in TNF+ NK cells (in words) (NKG2A−/NKG2C+ NK cells): no increase
effect on NKG2A+/NKG2C− NK cell inhibition (in words) (NKG2A+/NKG2C− NK cells; listed as SEQ ID NO. 2): no or minimal effect
effect on NKG2A+/NKG2C− NK cell inhibition (in words) (NKG2A+/NKG2C− NK cells; listed as h3): no effect
percentage of CCL3+ NK cells (NKG2A+/NKG2C− NK cells; Trial 1): 54.6%
percentage of CD107a+ NK cells (NKG2A+/NKG2C− NK cells; Trial 1): 34.8%
percentage of IFNG+ NK cells (NKG2A+/NKG2C− NK cells; Trial 1): 15.5%
percentage of TNF+ NK cells (NKG2A+/NKG2C− NK cells; Trial 1): 6.18%
percentage of CCL3+ NK cells (NKG2A+/NKG2C− NK cells; Trial 2): 73.9%
percentage of CD107a+ NK cells (NKG2A+/NKG2C− NK cells; Trial 2): 47.2%
percentage of IFNG+ NK cells (NKG2A+/NKG2C− NK cells; Trial 2): 26.8%
percentage of TNF+ NK cells (NKG2A+/NKG2C− NK cells; Trial 2): 12.4%
percentage of CCL3+ NK cells (NKG2A+/NKG2C− NK cells; Trial 3): 55.1%
percentage of CD107a+ NK cells (NKG2A+/NKG2C− NK cells; Trial 3): 44.9%
percentage of IFNG+ NK cells (NKG2A+/NKG2C− NK cells; Trial 3): 32.1%
percentage of TNF+ NK cells (NKG2A+/NKG2C− NK cells; Trial 3): 19.7%
percentage of CCL3+ NK cells (NKG2A+/NKG2C− NK cells; Trial 4): 46.5%
percentage of CD107a+ NK cells (NKG2A+/NKG2C− NK cells; Trial 4): 37.7%
percentage of IFNG+ NK cells (NKG2A+/NKG2C− NK cells; Trial 4): 20.1%
percentage of TNF+ NK cells (NKG2A+/NKG2C− NK cells; Trial 4): 12.5%
percentage of CCL3+ NK cells (NKG2A+/NKG2C− NK cells; Trial 5): 49.6%
percentage of CD107a+ NK cells (NKG2A+/NKG2C− NK cells; Trial 5): 35.9%
percentage of IFNG+ NK cells (NKG2A+/NKG2C− NK cells; Trial 5): 19.2%
percentage of TNF+ NK cells (NKG2A+/NKG2C− NK cells; Trial 5): 9.62%
percentage of CCL3+ NK cells (NKG2A+/NKG2C− NK cells; Trial 6): 33.1%
percentage of CD107a+ NK cells (NKG2A+/NKG2C− NK cells; Trial 6): 25.7%
percentage of IFNG+ NK cells (NKG2A+/NKG2C− NK cells; Trial 6): 9.52%
percentage of TNF+ NK cells (NKG2A+/NKG2C− NK cells; Trial 6): 5.43%
